Assay results: US8097625B2, “Combination of sedative and a neurotransmitter modulator, and methods for improving sleep quality and treating depression” (priority 2003, dated 2012)

System: subjects with insomnia related to major depressive disorder
Test: DREAMDD clinical study: Clinical Global Impression (Severity 1=normal to 7=most extremely depressed; Global Improvement 1=very much improved to 7=very much worse)
Format: in vivo, human
Details: for CGI - Global Improvement, Mean (SD) / CGI - Global Improvement, Median / CGI - Severity, Change from Baseline, Mean (SD) / CGI - Severity, Change from Baseline, Median / CGI - Severity, Observed Value, Mean (SD) / CGI - Severity, Observed Value, Median / CGI - Severity, Change from Baseline, Least Squares Mean (SE): ITT; for CGI - Severity, Change from Baseline, Least Squares Mean (SE): ANCOVA
Protocol: Depression Response to Eszopiclone in Adults With Major Depressive Disorder (DREAMDD): A Randomized, Double-Blind, Placebo-Controlled, Parallel-Group, 8-Week, Safety and Efficacy Study of Eszopiclone 3 mg Compared to Placebo in Subjects with Insomnia Related to Major Depressive Disorder
This study was a double-blind randomized, placebo-controlled, parallel group study. […] All subjects must satisfy DSM-IV criteria for insomnia related to major depression.
Sleep, Depression, and Productivity Questionnaires and Clinical Global Impression: The following questionnaires were administered as listed below. • Epworth Sleepiness Scale (ESS): ESS was completed by the subject at Visits 2-10. The ESS is a subjective assessment of the likelihood of falling asleep in various situations. • Insomnia Severity Index (ISI): ISI was completed by the subject at Visits 3, 5, 7, 9 and 10. The ISI is a subjective assessment of sleep quality, restedness/refreshness upon arising, daytime fatigue, attention/concentration and relationship and mood disturbances. • Work Limitations Questionnaire (WLQ): WLQ was completed by the subject at Visits 3, 5, 7, 9, and 10. The WLQ is a validated self-report instrument for measuring the degree to which chronic health problems interfere with ability to perform job roles, addressing the content of the job through a demand-level methodology. • Hamilton Depression-17: HAM-D-17 was administered via IVRS at screening and rated by a trained clinician at Visits 3, 7, 9, and 10. • SF-36: SF-36 was completed by the subject at Visits 3, 7, 9 and 10. The SF-36 represents multiple operational definitions of health, including function and dysfunction, distress and well-being, objective reports and subjective ratings, and both favorable and unfavorable self-evaluations of general health status. • Clinical Global Impression (CGI): CGI was completed by the investigator at Visits 3-10 The CGI is the investigator's subjective assessment of improvement in the subject's depressive symptoms. The response on the CGI at Visit 7 (Week 4 of double-blind treatment) was used by the investigator to assess the need for increasing the dose of fluoxetine to 40 mg daily (in the morning). […] Study Conduct
Clinical Global Impression: In this test, a medical professional rates the patient's depression and whether the improvement in depression is due to the drug treatment. Question 1) Severity: Considering your total clinical experience with this particular population, how depressed is the patient at this time? Respond by indicating 1=normal, not at all depressed, 2=borderline depressed, 3=mildly depressed, 4=moderately depressed, 5=markedly depressed, 6=severely depressed, or 7=among the most extremely depressed patients. Question 2) Global Improvement: Rate total improvement whether or not, in your judgment, it is due entirely to drug treatment. Compared to his/her condition at Visit 3, how much has he/she changed?
Methods: Patients who met DSM-IV criteria for new MDD and insomnia received fluoxetine 20 mg QAM plus either eszopiclone 3 mg (n=275) or placebo (n=270) nightly for 8 weeks. Efficacy was assessed using HAMD17 and Clinical Global Impression Improvement (CGI-I) and Severity (CGI-S). Response=50% decrease from baseline HAMD17; remission=HAMD17≦7.

[1] = Visit 4 (Week 1), 3 mg nightly + fluoxetine
[2] = Visit 5 (Week 2), 3 mg nightly + fluoxetine
[3] = Visit 6 (Week 3), 3 mg nightly + fluoxetine
[4] = Visit 7 (Week 4), 3 mg nightly + fluoxetine
[5] = Visit 8 (Week 6), 3 mg nightly + fluoxetine
[6] = Visit 9 (Week 8), 3 mg nightly + fluoxetine
[7] = Visit 10 (EOT; Week 10, after single-blind wash-out), eszopiclone 3 mg group

CN1CCN(C(=O)OC2c3nccnc3C(=O)N2c2ccc(Cl)cn2)CC1 (single isomer, unassigned; (+)) [Eszopiclone, (+) 6-(5-chloro-2-pyridinyl)-6,7-dihydro-7-oxo-5H-pyrrolo[3,4b]pyrazin-5-yl 4-methylpiperazine-1-carboxylate]
CGI - Global Improvement, Mean (SD) [1]: 3.3 (0.8) | CGI - Global Improvement, Median [1]: 3.0 | CGI - Severity, Change from Baseline, Mean (SD) [1]: −0.3 (0.7) | CGI - Severity, Change from Baseline, Median [1]: 0.0 | CGI - Severity, Observed Value, Mean (SD) [1]: 4.0 (0.7) | CGI - Severity, Observed Value, Median [1]: 4.0 | CGI - Severity, Change from Baseline, Least Squares Mean (SE) [1]: −0.3 (0.0) | CGI - Global Improvement, Mean (SD) [2]: 2.9 (0.8) | CGI - Global Improvement, Median [2]: 3.0 | CGI - Severity, Change from Baseline, Mean (SD) [2]: −0.8 (0.9) | CGI - Severity, Change from Baseline, Median [2]: −1.0 | CGI - Severity, Observed Value, Mean (SD) [2]: 3.6 (0.9) | CGI - Severity, Observed Value, Median [2]: 4.0 | CGI - Severity, Change from Baseline, Least Squares Mean (SE) [2]: −0.8 (0.1) | CGI - Global Improvement, Mean (SD) [3]: 2.6 (0.9) | CGI - Global Improvement, Median [3]: 3.0 | CGI - Severity, Change from Baseline, Mean (SD) [3]: −1.1 (1.0) | CGI - Severity, Change from Baseline, Median [3]: −1.0 | CGI - Severity, Observed Value, Mean (SD) [3]: 3.2 (1.0) | CGI - Severity, Observed Value, Median [3]: 3.0 | CGI - Severity, Change from Baseline, Least Squares Mean (SE) [3]: −1.1 (0.1) | CGI - Global Improvement, Mean (SD) [4]: 2.4 (1.0) | CGI - Global Improvement, Median [4]: 2.0 | CGI - Severity, Change from Baseline, Mean (SD) [4]: −1.4 (1.1) | CGI - Severity, Change from Baseline, Median [4]: −1.0 | CGI - Severity, Observed Value, Mean (SD) [4]: 3.0 (1.1) | CGI - Severity, Observed Value, Median [4]: 3.0 | CGI - Severity, Change from Baseline, Least Squares Mean (SE) [4]: −1.3 (0.1) | CGI - Global Improvement, Mean (SD) [5]: 1.9 (0.9) | CGI - Global Improvement, Median [5]: 2.0 | CGI - Severity, Change from Baseline, Mean (SD) [5]: −1.8 (1.2) | CGI - Severity, Change from Baseline, Median [5]: −2.0 | CGI - Severity, Observed Value, Mean (SD) [5]: 2.5 (1.0) | CGI - Severity, Observed Value, Median [5]: 2.5 | CGI - Severity, Change from Baseline, Least Squares Mean (SE) [5]: −1.8 (0.1) | CGI - Global Improvement, Mean (SD) [6]: 1.9 (1.0) | CGI - Global Improvement, Median [6]: 2.0 | CGI - Severity, Change from Baseline, Mean (SD) [6]: −1.9 (1.3) | CGI - Severity, Change from Baseline, Median [6]: −2.0 | CGI - Severity, Observed Value, Mean (SD) [6]: 2.4 (1.2) | CGI - Severity, Observed Value, Median [6]: 2.0 | CGI - Severity, Change from Baseline, Least Squares Mean (SE) [6]: −1.8 (0.1) | CGI - Severity, Change from Baseline, Least Squares Mean (SE) [7]: −2.2 (0.1) | CGI - Global Improvement, Mean (SD) [7]: 1.6 (0.9) | CGI - Global Improvement, Median [7]: 1.0 | CGI - Severity, Change from Baseline, Mean (SD) [7]: −2.3 (1.2) | CGI - Severity, Change from Baseline, Median [7]: −2.0 | CGI - Severity, Observed Value, Mean (SD) [7]: 2.0 (1.0) | CGI - Severity, Observed Value, Median [7]: 2.0 | CGI-I and CGI-S scores versus placebo (p<0.05, 3 mg nightly + fluoxetine): significantly greater
